As a reminder, the MIC is the lowest concentration that inhibits growth of the organism.

Holding throughout (format): cell-based
The subject of one assay is E. coli BW25113. Description: MIC, microdilution in 96-well plates. To be noted: Escherichia coli. The procedure, abridged: (§1)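 First, a 1:10000 inoculum of each strain was made in Luria-Bertani medium from a growing subculture. Next, the compound was added and diluted 2-fold down the plate in three replicate columns, with DMSO in a fourth. Finally, plates were shaken at 37° C. for 16-18 hours and scored visually.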
On the technique in general: Broth dilution looks for growth in wells or tubes with falling amounts of substance.

Another assay has as its system Edwardsiella tarda. Description: MIC, microdilution in 96-well plates. Summed up: as §1
Assay [1] concerns Klebsiella pneumoniae subsp. pneumoniae. Description: MIC, 20-strain panel. The procedure, abridged:
as §1

In assay [2] the test system is Staphylococcus aureus subsp. aureus. Description: MIC, 20-strain panel. The procedure, abridged: as §1
The subject of assay [3] is Salmonella enterica subsp. enterica typhimurium. Description: MIC, 20-strain panel. The procedure, abridged:
as §1

Assay [4] deals with Staphylococcus saprophyticus subsp. saprophyticus. Nature of the assay: MIC, 20-strain panel. Summed up: as §1
A further assay has as its system Streptococcus agalactiae. Nature of the assay: MIC, 20-strain panel. Summed up:
as §1

For the next assay, the system named is Streptococcus pyogenes. Description: MIC, 20-strain panel. Summed up: as §1
In a further assay the test system is Shigella flexneri. Nature of the assay: MIC, 20-strain panel. Summed up: as §1
A further assay concerns E. coli MG1655. Nature of the assay: MIC, 20-strain panel. Particulars: Escherichia coli. Summed up: as §1
The test system of another assay is E. coli JW5503 (deltolC). Nature of the assay: MIC, 20-strain panel. To be noted: Escherichia coli. The procedure, abridged:
as §1

In assay [5] the test system is Staphylococcus epidermidis. Nature of the assay: MIC, 20-strain panel. Summed up: as §1
[6] abbreviates: BW25113, B: E. coli BW25113, read-out: MIC.
Where [7] appears, read: E: Klebsiella pneumoniae subsp. pneumoniae.
Setting [8] is: H: Staphylococcus aureus subsp. aureus, read-out: MIC.
The mark [9] stands for this setting: F: Salmonella enterica subsp. enterica Typhimurium.
Setting [10] is: MG1655, A: E. coli MG1655, read-out: MIC.
Where [11] appears, read: BW25113, E. coli BW25113, read-out: MIC.
[12] abbreviates: Klebsiella pneumoniae subsp. pneumoniae.
Setting [13] is: Staphylococcus aureus subsp. aureus, read-out: MIC.
Setting [14] is: Salmonella enterica subsp. enterica Typhimurium.
[15] abbreviates: MG1655, E. coli MG1655, read-out: MIC.

≈ marks a conversion by molar mass, not a printed value. Where two headings read alike, the source gives them in different places.

As to `O=S(=O)(N[C@@H]1CCN(Cc2ccc(SC(F)(F)F)cc2)C1)c1cccc(C(F)(F)F)c1` [Compound 52], the MIC (in the assay with E. coli BW25113 (setting [6]); in the assay on Edwardsiella tarda (D: Edwardsiella tarda); in assay [1] (setting [7]); in assay [2] (setting [8]); in assay [3] (setting [9]); in assay [4]) was more than 8 µg/mL throughout. In addition, the minimal inhibitory concentration (MIC) against Streptococcus agalactiae was more than 8 µg/mL; against Streptococcus pyogenes, more than 8 µg/mL; with Shigella flexneri (G: Shigella flexneri), more than 8 µg/mL; with E. coli MG1655 (setting [10]), more than 8 µg/mL; against E. coli JW5503 (deltolC) (C: E. coli JW5503 (deltolC)), 4 µg/mL (≈ 8.26 µM); in assay [5] it was more than 8 µg/mL.
Consider `CSc1ccc(CN2CC[C@@H](NS(=O)(=O)c3cccc(C(F)(F)F)c3)C2)cc1` [Compound 86], for which the MIC (with E. coli BW25113 (setting [6]); against Edwardsiella tarda (D: Edwardsiella tarda); in [1] (setting [7]); in assay [2] (setting [8]); in assay [3] (setting [9]); in assay [4]) was more than 8 µg/mL each time. For the same compound, the minimal inhibitory concentration (MIC) was more than 8 µg/mL against Streptococcus agalactiae; more than 8 µg/mL against Streptococcus pyogenes; more than 8 µg/mL in the assay with Shigella flexneri (G: Shigella flexneri); more than 8 µg/mL in the assay on E. coli MG1655 (setting [10]); 4 µg/mL (≈ 9.29 µM) in the assay with E. coli JW5503 (deltolC) (C: E. coli JW5503 (deltolC)); more than 8 µg/mL in assay [5].
In the case of `N#Cc1cccc(S(=O)(=O)N[C@@H]2CCN(Cc3ccc(-c4ccncc4)cc3)C2)c1` [Compound 67], the minimum inhibitory concentration (MIC) (in the assay with E. coli BW25113 (setting [6]); in the assay with Edwardsiella tarda (D: Edwardsiella tarda); in assay [1] (setting [7]); in assay [2] (setting [8]); in assay [3] (setting [9]); in [4]) was more than 8 µg/mL throughout. Moreover, the MIC in the assay with Streptococcus agalactiae is more than 8 µg/mL; in the assay on Streptococcus pyogenes it was more than 8 µg/mL; against Shigella flexneri (G: Shigella flexneri) it was more than 8 µg/mL; with E. coli MG1655 (setting [10]) it was more than 8 µg/mL; against E. coli JW5503 (deltolC) (C: E. coli JW5503 (deltolC)), 4 µg/mL (≈ 9.56 µM); in assay [5], more than 8 µg/mL.
`N#Cc1cccc(S(=O)(=O)N[C@@H]2CCN(Cc3ccc(OCC(F)F)cc3)C2)c1` [Compound 8]: the minimal inhibitory concentration (MIC) was more than 8 µg/mL with E. coli BW25113 (setting [6]); more than 8 µg/mL with Edwardsiella tarda (D: Edwardsiella tarda); more than 8 µg/mL in [1] (setting [7]); more than 8 µg/mL in assay [2] (setting [8]); 8 µg/mL (≈ 19 µM) in [3] (setting [9]); more than 8 µg/mL in assay [4]. For the same compound, the minimal inhibitory concentration (MIC) with Streptococcus agalactiae is more than 8 µg/mL; against Streptococcus pyogenes it was more than 8 µg/mL; in the assay on Shigella flexneri (G: Shigella flexneri) it was more than 8 µg/mL; in the assay on E. coli MG1655 (setting [10]), more than 8 µg/mL; with E. coli JW5503 (deltolC) (C: E. coli JW5503 (deltolC)), 2 µg/mL (≈ 4.75 µM); in [5] it was more than 8 µg/mL.
Consider `O=S(=O)(N[C@@H]1CCN(Cc2ccc(-c3ccccc3)cc2)C1)c1cccnc1` [Compound 146], for which the MIC (in the assay with E. coli BW25113 (setting [11]); in the assay with Edwardsiella tarda; in assay [1] (setting [12]); in assay [2] (setting [13]); in assay [3] (setting [14]); in assay [4]) was more than 8 µg/mL each time. Also, the MIC in the assay with Streptococcus agalactiae was more than 8 µg/mL; with Streptococcus pyogenes, more than 8 µg/mL; against Shigella flexneri, more than 8 µg/mL; with E. coli MG1655 (setting [15]), more than 8 µg/mL; in the assay with E. coli JW5503 (deltolC) (E. coli JW5503 (deltolC)), 8 µg/mL (≈ 20.3 µM); in assay [5], more than 8 µg/mL.
As to `CC(C)Oc1ccc(CN2CC[C@@H](NS(=O)(=O)c3ccc(C#N)nc3)C2)cc1` [Compound 138], the MIC (in the assay on E. coli BW25113 (setting [11]); in the assay on Edwardsiella tarda; in assay [1] (setting [12]); in [2] (setting [13]); in [3] (setting [14]); in assay [4]) was more than 8 µg/mL throughout. Also, the minimum inhibitory concentration (MIC) (in the assay with Streptococcus agalactiae; in the assay with Streptococcus pyogenes; against Shigella flexneri; in the assay on E. coli MG1655 (setting [15]); in the assay with E. coli JW5503 (deltolC) (E. coli JW5503 (deltolC)); in [5]) was more than 8 µg/mL in each case.
With `O=S(=O)(N[C@@H]1CCN(Cc2ccc(-c3ccc(Cl)cc3)cc2)C1)c1cccc(OC(F)(F)F)c1` [Compound 103], the minimal inhibitory concentration (MIC) is more than 8 µg/mL with E. coli BW25113 (setting [6]); more than 8 µg/mL in the assay with Edwardsiella tarda (D: Edwardsiella tarda); more than 8 µg/mL in assay [1] (setting [7]); 8 µg/mL (≈ 15.7 µM) in assay [2] (setting [8]); more than 8 µg/mL in assay [3] (setting [9]); more than 8 µg/mL in [4]. The minimum inhibitory concentration (MIC) was more than 8 µg/mL with Streptococcus agalactiae; approximately 8 µg/mL (≈ 15.7 µM) against Streptococcus pyogenes; more than 8 µg/mL in the assay on Shigella flexneri (G: Shigella flexneri); more than 8 µg/mL in the assay on E. coli MG1655 (setting [10]); approximately 8 µg/mL (≈ 15.7 µM) in the assay with E. coli JW5503 (deltolC) (C: E. coli JW5503 (deltolC)); 8 µg/mL (≈ 15.7 µM) in assay [5].
Take `O=S(=O)(N[C@@H]1CCN(Cc2ccc(-c3ccccc3)cc2)C1)c1cc(F)cc(C(F)(F)F)c1` [Compound 71]: the minimal inhibitory concentration (MIC) (in the assay with E. coli BW25113 (setting [6]); in the assay on Edwardsiella tarda (D: Edwardsiella tarda); in assay [1] (setting [7]); in [2] (setting [8]); in [3] (setting [9]); in [4]) was more than 8 µg/mL each time. The MIC against Streptococcus agalactiae is more than 8 µg/mL; against Streptococcus pyogenes, 8 µg/mL (≈ 16.7 µM); in the assay on Shigella flexneri (G: Shigella flexneri) it was more than 8 µg/mL; with E. coli MG1655 (setting [10]) it was more than 8 µg/mL; in the assay with E. coli JW5503 (deltolC) (C: E. coli JW5503 (deltolC)), 4 µg/mL (≈ 8.36 µM); in assay [5], more than 8 µg/mL.
For `CC(C)Oc1ccc(CN2CC[C@@H](NS(=O)(=O)c3cccc4cccnc34)C2)cc1` [Compound 84], the MIC (with E. coli BW25113 (setting [6]); in the assay with Edwardsiella tarda (D: Edwardsiella tarda); in [1] (setting [7]); in assay [2] (setting [8]); in assay [3] (setting [9]); in assay [4]) was more than 8 µg/mL throughout. Moreover, the MIC against Streptococcus agalactiae is more than 8 µg/mL; in the assay on Streptococcus pyogenes it was more than 8 µg/mL; in the assay on Shigella flexneri (G: Shigella flexneri), more than 8 µg/mL; with E. coli MG1655 (setting [10]), more than 8 µg/mL; in the assay with E. coli JW5503 (deltolC) (C: E. coli JW5503 (deltolC)) it was 1 µg/mL (≈ 2.35 µM); in assay [5], more than 8 µg/mL.
Consider `N#Cc1ccc(Cl)c(S(=O)(=O)N[C@@H]2CCN(Cc3ccc(-c4ccccc4)cc3)C2)c1` [Compound 11], for which the MIC against E. coli BW25113 (BW25113, B: E. coli BW25113) is approximately 8 µg/mL (≈ 17.7 µM); against Edwardsiella tarda (D: Edwardsiella tarda), more than 8 µg/mL; in assay [1] (setting [7]), more than 8 µg/mL; in [2] (H: Staphylococcus aureus subsp. aureus), more than 8 µg/mL; in assay [3] (setting [9]), 4 µg/mL (≈ 8.85 µM); in assay [4], more than 8 µg/mL. Besides, the minimum inhibitory concentration (MIC) was more than 8 µg/mL against Streptococcus agalactiae; more than 8 µg/mL against Streptococcus pyogenes; more than 8 µg/mL in the assay on Shigella flexneri (G: Shigella flexneri); more than 8 µg/mL in the assay on E. coli MG1655 (MG1655, A: E. coli MG1655); less than 0.062 µg/mL in the assay with E. coli JW5503 (deltolC) (C: E. coli JW5503 (deltolC)); more than 8 µg/mL in assay [5].
Consider `Cn1ccc(-c2ccc(CN3CC[C@@H](NS(=O)(=O)c4cccc(C(F)(F)F)c4)C3)cc2)n1` [Compound 171], for which the MIC (in the assay on E. coli BW25113 (setting [11]); in the assay with Edwardsiella tarda; in assay [1] (setting [12]); in [2] (setting [13]); in assay [3] (setting [14]); in assay [4]) was more than 8 µg/mL in each case. For the same compound, the MIC against Streptococcus agalactiae was more than 8 µg/mL; in the assay with Streptococcus pyogenes, more than 8 µg/mL; in the assay with Shigella flexneri it was more than 8 µg/mL; in the assay on E. coli MG1655 (setting [15]), more than 8 µg/mL; with E. coli JW5503 (deltolC) (E. coli JW5503 (deltolC)) it was 1 µg/mL (≈ 2.15 µM); in assay [5], more than 8 µg/mL.
With `O=S(=O)(N[C@@H]1CCN(Cc2ccc3c(c2)OCCO3)C1)c1cccc(C(F)(F)F)c1` [Compound 60], the minimum inhibitory concentration (MIC) (with E. coli BW25113 (setting [6]); against Edwardsiella tarda (D: Edwardsiella tarda); in assay [1] (setting [7]); in assay [2] (setting [8]); in assay [3] (setting [9]); in assay [4]) was more than 8 µg/mL each time. Also, the MIC is more than 8 µg/mL in the assay with Streptococcus agalactiae; more than 8 µg/mL with Streptococcus pyogenes; more than 8 µg/mL against Shigella flexneri (G: Shigella flexneri); more than 8 µg/mL in the assay on E. coli MG1655 (setting [10]); 8 µg/mL (≈ 18.1 µM) against E. coli JW5503 (deltolC) (C: E. coli JW5503 (deltolC)); more than 8 µg/mL in assay [5].
As for `O=S(=O)(N[C@@H]1CCN(Cc2ccc(-c3nccs3)cc2)C1)c1cccc(C(F)(F)F)c1` [Compound 57], the MIC (in the assay on E. coli BW25113 (setting [6]); in the assay with Edwardsiella tarda (D: Edwardsiella tarda); in [1] (setting [7]); in [2] (setting [8]); in assay [3] (setting [9]); in [4]) was more than 8 µg/mL throughout. Moreover, the MIC against Streptococcus agalactiae is more than 8 µg/mL; in the assay on Streptococcus pyogenes, more than 8 µg/mL; against Shigella flexneri (G: Shigella flexneri) it was more than 8 µg/mL; with E. coli MG1655 (setting [10]) it was more than 8 µg/mL; with E. coli JW5503 (deltolC) (C: E. coli JW5503 (deltolC)), 8 µg/mL (≈ 17.1 µM); in assay [5], more than 8 µg/mL.

Source of the values: patent publication US10253039B2, “Inhibitors of bacterial DNA gyrase with efficacy against gram-negative bacteria” (priority 2014, dated 2019).
